Assay results reported in US11452309B2, “Formula of preparations for oral and/or enteral feeding of children” (priority 2017, dated 2022).
In brackets after ≈: the same amount, converted by molar mass. Structures can show the parent of a compound that is named as a salt. Where two headings read alike, the source gives them in different places.

Assays:
[1] = cited from earlier work
[2] = Solubility of kynurenic acid and its sodium salt; assay type: physicochemical; conditions: water, converted from 100 mM, read-out: solubility in water, corresponding value

Row | solubility [2] [mg/mL] | SMILES | solubility in 1.0 M NaOH ([1]; alkaline conditions, 1.0 M NaOH) [mg/mL] | solubility in water [1] [mg/mL] | solubility in water ([1]; sodium salt) [mM]
1 |  | O=C(O)c1cc(=O)c2ccccc2[nH]1 [kynurenic acid] | 50 (≈ 264 mM) | 0.95 | 
2 | 21 | O=C(O)c1cc(=O)c2ccccc2[nH]1 [sodium salt] |  |  | 100
